Experimental data: patent publication US6310093A (priority 1998, dated 2001)

How the values were obtained:
[1] = test system: glial cultures (astrocytes); assay: Glutamate production in intact glial cultures with added glutamine; format: cell-based, mouse (Swiss Webster)
Procedure: The glutamate concentration of glial cultures was maintained below 1 μM when cells were maintained in the absence or presence of 2 mM added glutamine or when subjected to hypoxic conditions (see below). The medium glutamate concentration remained unchanged between 7 and 24 h after medium change and was 0.14±0.04 μM and 0.36±0.06μM in medium containing 0.15 mM or 2.0 mM glutamine, respectively. Based on these steady state concentrations and the measured rate of glutamate uptake, the rates of glutamate production in the absence and presence of added glutamine were calculated to be 0.012 μM/min (4.8 pmol/min) and 0.030 μM/min (12 pmol/min), respectively. Thus, the calculated rates of glutamate production by glial cultures are only slightly affected by the addition of glutamine and are similar to those observed in intact neurons cultured in the absence of added glutamine.
Pre-column derivatization with o-phthalaldehyde (OPA, Sigma) and separation by reversed phase HPLC was used. A Gilson HPLC was fitted with a Hewlett-Packard model 1046A fluorimetric detector (excitation 340 nm, emission 420 nm). Medium was collected from cell culture at various times, and frozen at -80° C., prior to dilution of 5 or 10 μl into auto-sampler vials containing 40 or 45 μl dimethylformamide:water 1:3 (derivatives with 2-mercaptoethanol) or 1:9 (derivatives with N-acetyl-L-cysteine). […]
In cultures where glutamate concentrations are (within error) constant, d[Glu]/dt is close to zero, and cellular production of medium glutamate is balanced by its removal, such that glutamate production can be calculated from the steady state equation: […]
Calculations were performed using the slopes of the regression lines which describe the rate constants for glutamate removal and the mean values for culture medium glutamate concentrations. […] For comparative purposes, glutamate production rates can be expressed as pmol of glutamate produced per min in each culture. […]

[2] = test system: glial cultures (astrocytes); assay: Glutamate and cell death in glial cultures exposed to hypoxia with glutamine; format: cell-based, mouse (Swiss Webster); conditions: for Glu: hypoxia, 2 mM Gln
Procedure: Measurements of glutamate and glutamine concentrations, as well as of the release of the cytoplasmic marker enzyme, lactate dehydrogenase (LDH), were made with the medium of mixed neuronal-astrocyte cultures exposed to hypoxic and control conditions, with and without the addition of 2 mM glutamine. For comparative purposes, the measurements were made in mixed cultures in which complete neuronal death was caused by a 5h exposure to 500 μM NMDA. The first glutamate measurement was made at the end of hypoxia (5h with mixed cultures, 7h with astrocytes), and the second at 19 h after the subsequent return of oxygen. If added, glutamine was present during and after hypoxia. LDH released by the experimental treatment was measured at 24 h, and is expressed as a percentage of the total cellular content (neurons in mixed cultures, and glia in glial cultures). To verify the neuronal origin of LDH and glutamate, similar experiments were performed on cultures that only contained glia.
Astrocytes were cultured from cortical cell suspensions from 1-2 day old Swiss Webster mouse pups. Mixed cultures of neurons and astrocytes were obtained by plating cortical neurons from embryonic day 15-16 mice on confluent astrocyte monolayers. Pure neuronal cultures were made from the same embryonic cortical cell suspensions; astrocyte growth was inhibited by adding cytosine arabinoside and decreasing serum in the medium. For survival, neuronal cultures were fed with glial conditioned medium. Neuronal cultures were used for experiments at 11-15 days in vitro, and mixed cultures at 13-15 days after plating the neurons.
Hypoxia was carried out at 37° C. in an anoxic chamber (<0.2% oxygen; Forma Scientific). Before each experiment, the medium was pre-equilibrated with an anoxic gas mixture containing 5% CO2, 85% N2 and 10% H2 and incubated at 37° C. […] The oxygen tension in the anoxic chamber was monitored using an oxygen electrode (Model MI-730; Microelectrodes Inc.). […]

NC(=O)CC[C@H](N)C(=O)O [Gln, glutamine]
Glutamate concentration ([1]; Table 2, glial, 2 mM Gln): 0.36 ± 0.06 | Glutamate production (S) ([1]; Table 2, glial, 2 mM Gln): 0.03 | glutamate production per culture ([1]; glial, 2 mM glutamine): 12 pmol/min | cytotoxicity at 2000 µM ([2]; Mus musculus, Astrocyte, 24 h, read-out: % cell death (LDH)): 2 to 5% | Glu ([2]; 7 h): 0.39 ± .09 µM | Glu ([2]; 24 h): 0.39 ± 0.07 µM
